These results are taken from patent US7166725B2, “Benzo[d]isoxazol-3-ol DAAO inhibitors” (Sepracor Inc., priority 2003, dated 2007).

A value given as a limit tells only on which side of the number the result lay.

For one data set, the target named is Purified pig DAAO (Sus scrofa, UniProt P00371). As to the kind of experiment: In vitro measurements of DAAO activity (Amplex Red H2O2 fluorescence; alternative phenylglycine absorbance assay). The format is biochemical. Conditions: read-out: Inhibition of DAAO, IC50. Here is the method:
Purified pig DAAO, added to a buffered mixture of 50 mM D-Serine produces H202 in stoichiometric amounts for each D-Serine molecule oxidized. H202 production can be monitored with a commercially available dye Amplex Red, which in the presence of H202, is converted to the fluorescent product resorufin. For each described inhibitor, the fluorescence was also measured during additions of 80 μM H202 in the absence of DAAO, to control for artifactual inhibition of the dye conversion, and to quantify the amount of H202 produced. In an alternative assay of DAAO activity, the purified pig DAAO is added to buffered mixture of 1 mM phenylglycine in the presence of compounds. The activity of DAAO is monitored spectrophotometrically by its enzymatic conversion of phenylglycine to benzoylformic acid with optical absorption at 252 nm.
Inhibitors of DAAO's enzymatic cycle were serially diluted to reduce the level of inhibition. The parameters of a non-linear equation were adjusted to fit the resulting series of inhibition levels to extrapolate the concentration of compound where 50% inhibition is achieved (IC50). These numbers are averaged for the number (n) of independent measurements (on separate days) of the inhibition.

Data set [1] in a line: Rat brain uptake, left carotid artery perfusion. Conditions: 30 seconds perfusion in phosphate buffered saline pH 7.4; N of 4 rats. The format is in vivo. From the text:
Experiments that evaluate the rat brain penetration of test compounds use a perfusion system where the left carotid artery is cannulated and the branch arteries are tied off. The test compound plus internal controls are perfused for 30 seconds into the left hemisphere in phosphate buffered saline at pH 7.4. The internal controls are atenolol (with low brain uptake) and antipyrine (with high brain uptake). After a 30 second washout with perfusate, the brain is removed surgically. The left hemisphere is homogenized; test compounds (plus internal controls) are extracted from brain homogenate, and analyzed using LC/MS/MS to determine the concentration of test compound and internal controls in the brain.

Data set [2] deals with T1, D-Serine's binding site on the NMDA receptor (Rattus norvegicus, UniProt P35439).
T1 construct: membranes prepared from rat cerebral cortex; from tissue; host or cells: rat cerebral cortex membranes
As to the kind of experiment: NMDA receptor affinity, [3H]MDL105,519 radioligand binding, rat cerebral cortex membranes. Conditions: tested at 100 μM, read-out: inhibition of specific [3H]MDL105,519 binding. The protocol: To measure the affinity of the compounds reported herein for D-Serine's binding site on the NMDA receptor (also known as the “Glycine site” or the “strychnine-insensitive glycine site”), a radioligand-binding assay was performed with membranes prepared from rat cerebral cortex. The radioactive ligand was [3H]MDL105,519. The amount of radioactivity displaced by the compounds was assessed by scintillation counting. Non-specific binding is accounted for in the presence of 1 mM Glycine. Affinities are calculated from the values of % inhibition of specific [3H]MDL105,519 binding by the test compounds.

Sequence of Purified pig DAAO (P00371 whole entry): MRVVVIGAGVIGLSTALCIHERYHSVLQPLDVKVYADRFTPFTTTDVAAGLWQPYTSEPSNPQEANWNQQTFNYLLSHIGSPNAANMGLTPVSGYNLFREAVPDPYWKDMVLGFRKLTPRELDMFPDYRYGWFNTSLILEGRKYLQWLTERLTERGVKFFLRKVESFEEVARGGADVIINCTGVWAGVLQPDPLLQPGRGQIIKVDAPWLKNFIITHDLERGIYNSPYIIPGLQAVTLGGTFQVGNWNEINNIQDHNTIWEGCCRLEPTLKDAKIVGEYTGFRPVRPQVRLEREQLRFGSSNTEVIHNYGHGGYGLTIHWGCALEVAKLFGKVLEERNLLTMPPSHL

The term IC50 denotes the concentration that inhibits the measured activity by half. As to `O=C(Nc1ccc2c(O)noc2c1)OCc1ccccc1`, at Purified pig DAAO, the IC50 was above 100 µM. As for `COc1ccc2onc(O)c2c1`, the IC50 on Purified pig DAAO is below 10 µM. For the compound `Cc1cc2onc(O)c2cc1Cl`, the IC50 at Purified pig DAAO was below 0.1 µM. Still for that read-out and setting: the value for `Oc1noc2cc(Cl)c(Br)cc12` was below 0.1 µM. With `Cc1ccc2c(O)noc2c1` [drawing 48], the “Rat Brain Uptake Rate” value in data set [1] stood at 199 pmol/g brain/sec. Turning to `Oc1noc2c(Cl)cccc12`, at Purified pig DAAO, the IC50 was above 100 µM. As for `Oc1noc2cc(Br)c(Br)cc12`, the IC50 on Purified pig DAAO was below 0.1 µM. As for `Oc1ccc2onc(O)c2c1`, the half-maximal inhibitory concentration (IC50) on Purified pig DAAO was above 100 µM. Take `Cc1cc2onc(O)c2cc1Br`: at Purified pig DAAO, the IC50 was below 0.1 µM. With `COc1cccc2c(O)noc12`, at Purified pig DAAO, the IC50 is below 100 µM. The same measure, in the same setting: the value for `Cc1ccc2c(O)noc2c1` [drawing 22] was below 1 µM. For the compound `Oc1noc2cc(Br)c(Cl)cc12`, the half-maximal inhibitory concentration (IC50) at Purified pig DAAO was below 0.1 µM. Consider `Cc1ccc2onc(O)c2c1`, for which, on Purified pig DAAO, the IC50 was below 10 µM.

With `COc1cccc2onc(O)c12`, the IC50 on Purified pig DAAO is below 100 µM. On the same count and under the same terms, the figure for `Oc1noc2cc(F)ccc12` is below 1 µM; for `Oc1noc2ccccc12` it is below 1 µM; for `Oc1noc2cccc(F)c12` it is below 10 µM.

Turning to `Oc1noc2ccc(CCc3ccccc3)cc12`, the IC50 on Purified pig DAAO was below 100 µM. Still for that read-out and setting: the value for `Cc1cc2onc(O)c2cc1I` was below 0.1 µM. As a reminder, the inhibition is the drop in the measured response relative to a control, in per cent. With `Oc1noc2cc(Cl)ccc12` [drawing 47], in data set [2], the inhibition at 100 µM is below 10%.

Turning to `Oc1noc2ccc(Br)cc12`, the IC50 at Purified pig DAAO was below 1 µM. For `O=C(O)c1cc2ccccc2[nH]1` [INDOLE-2-CARBOXYLIC ACID, reference compound], the IC50 at Purified pig DAAO is below 10 µM. In addition, the inhibition at 100 µM in data set [2] amounted to 77%. Consider `Oc1noc2ccc(F)cc12`, for which, on Purified pig DAAO, the IC50 was below 1 µM. Still for that read-out and setting: the figure for `Oc1noc2cc(OCc3ccccc3)ccc12` is above 100 µM; for `Cc1cccc2c(O)noc12` it is above 100 µM. As for `Oc1noc2cc(Cl)ccc12` [drawing 49], the “Rat Brain Uptake Rate” value in data set [1] turned out to be 162 pmol/g brain/sec. For the compound `Oc1cccc2onc(O)c12`, the IC50 at Purified pig DAAO was above 100 µM. Take `Oc1noc2ccc(Cl)cc12`: on Purified pig DAAO, the IC50 was below 1 µM. For `COc1ccc2c(O)noc2c1`, the IC50 on Purified pig DAAO is below 10 µM. `O=C(Nc1ccc2onc(O)c2c1)OCc1ccccc1`: the IC50 at Purified pig DAAO was above 100 µM. With `Oc1noc2c(O)cccc12`, the IC50 on Purified pig DAAO is below 100 µM.

For `Oc1noc2cc(Cl)c(Cl)cc12`, on Purified pig DAAO, the IC50 was below 0.1 µM. Turning to `Oc1ccc2c(O)noc2c1`, on Purified pig DAAO, the IC50 was below 10 µM. `N#Cc1ccc2onc(O)c2c1`: the IC50 at Purified pig DAAO was below 100 µM. Consider `Oc1noc2c(F)cccc12`, for which, on Purified pig DAAO, the IC50 is below 100 µM. `Oc1noc2cc(Br)ccc12`: at Purified pig DAAO, the IC50 was below 1 µM. In the case of `O=C(O)c1ccc[nH]1` [PYRROLE-2-CARBOXYLIC ACID, reference compound], the IC50 at Purified pig DAAO is below 10 µM. `Oc1noc2ccc(OCc3ccccc3)cc12`: the IC50 at Purified pig DAAO was below 10 µM. As to `Oc1noc2cc(Cl)ccc12` [drawing 38], at Purified pig DAAO, the IC50 is below 0.1 µM. On the same count and under the same terms, the value for `Oc1noc2ccc(I)cc12` was below 10 µM.
